Settings: human, in vivo
Procedure: A current dose of Taxol (paclitaxel) is 375 mg.
In this case, the prescriber would use the following information for the patient receiving Taxol: Current Dose 375 mg; Current Marker 660 (a unitless marker indicative of the current platelet count); Desired Marker 1,200 (a unitless marker indicative of where the prescriber wants to see the platelet count raised to); Previous Marker 640 (a unitless marker indicative of the patient's previous ANC).

SMILES: CC(=O)O[C@H]1C(=O)[C@@]2(C)[C@H]([C@H](OC(=O)c3ccccc3)[C@]3(O)C[C@H](OC(=O)[C@H](O)[C@@H](NC(=O)c4ccccc4)c4ccccc4)C(C)=C1C3(C)C)[C@]1(OC(C)=O)CO[C@@H]1C[C@@H]2O [Taxol, paclitaxel]
- Previous Marker (patient's previous ANC): 640
